From patent publication US9115061B2, “Naphthalene-based inhibitors of anti-apoptotic proteins” (BURNHAM INSTITUTE FOR MEDICAL RESEARCH, priority 2007, dated 2015)

Experiments:
H1299 = settings: cited from earlier work
Mcl-1 = Mcl-1 (Homo sapiens (Human), UniProt Q07820); settings: cited from earlier work
[1] = Liver microsomal stability; settings: rat liver microsomes, 4 μM, 60 min
Protocol: Pooled rat liver microsomes (BD Biosciences, #452701) were preincubated with test compounds at 37.5° C. for 5 min in the absence of NADPH. The reaction was initiated by addition of NADPH and then incubated under the same conditions. […] One aliquot (100 μL) of the incubation mixture was withdrawn at 0, 15, 30, and 60 min and combined immediately with 200 μL of ACN/MeOH containing an internal standard. After mixing, the sample was centrifuged at approximately 13,000 rpm for 12 min. The supernatant was transferred into an autosampler vial and the amount of test compound was quantified using the Shimadzu LCMS 2010EV mass spectrometer. The change of the AUC (area under the curve) of the parent compound as function of time was used as a measure of microsomal stability.

PC3ML cells = assay: Cell viability, ATP-LITE assay; format: cell-based, human
Protocol: (§1) The activity of the compounds against human cancer cell lines (PC3ML, H460, H1299, RS11846) were assessed by using the ATP-LITE assay (PerkinElmer). All cells were seeded in either F12 or RPMI1640 medium with 5 mM L-glutamine supplemented with 5% fetal bovine serum (Mediatech Inc.), penicillin and streptomycin (Omega). For maintenance, cells were cultured in 5% FBS. Cells plated into 96 well plates at varying initial densities depending on doubling time. H460 and H1299 plated at 2000 cells/well, A549 and PC3 at 3000 cells/well, and RS118456S at 10,000 cells/well. Compounds were diluted to final concentrations with 0.1% DMSO. Prior to dispensing compounds onto cells, fresh 5% media was placed into wells. Administration of compounds occurred 24 hours after seeding into the fresh media. Cell viability was evaluated using ATP-LITE reagent (PerkinElmer) after 72 hours of treatment. Data were normalized to the DMSO control-treated cells using Prism version 5.01 (Graphpad Software).

H460 cell line = assay: Cell viability, ATP-LITE assay; format: cell-based, human; settings: for EC50: 72 hours, ATP-LITE
Protocol: as §1

RS11846 cell line [2] = assay: Cell viability, ATP-LITE assay; format: cell-based, human; settings: 72 hours
Protocol: as §1

[3] = PAMPA (parallel artificial membrane permeation assay); settings: for Cell Permeability: PAMPA, pH 7.2, 8 h
Protocol: PAMPA is parallel artificial membrane permeation assay. A 96-well microtiter plate (Millipore, # MSSACCEPTOR) was completely filled with aqueous buffer solution (pH 7.2) and covered with a microtiter filterplate (Millipore, # MAPBMN310). The hydrophobic filter material was impregnated with a 10% solution of hexadecane in hexane and the organic solvent was allowed to completely evaporate. Permeation studies were started by the transfer of 200 μL of a 100 μM test compound solution on top of the filterplate. In general phosphate buffer at pH 7.2 buffer was used. The maximum DMSO content of the stock solutions was <5%. In parallel, an equilibrium solution lacking a membrane was prepared using the exact concentrations and specifications but lacking the membrane. The concentrations of the acceptor and equilibrium solutions were determined using the Shimadzu LCMS-2010EV and AUC methods. The permeation of a compound through the membrane layer is described by the percentage permeation (% flux). The flux values were calculated considering the concentration of the acceptor compartment after 8 h and that of a reference well with the same concentration containing no membrane barrier.

[4] = system: murine B-cells from BCL-2 transgenic mice; assay: Viability of cultured splenocytes, Annexin V-FITC/PI; format: cell-based; settings: 18 hours; read-out: IC50, induction of apoptosis in cultured B-cells of BCL-2 transgenic mouse
Protocol: (§2) Spleens were excised from sacrificed mice and cell suspensions treated with a mouse erythrocyte lysing kit (R & D Systems). Total splenocyte count was determined by typan blue dye exclusion assays using hemocytometers. The percentage of B-lymphocytes was determined by fluorescence activated cell sorter (FACS) analysis SACS-CANTO, Bectin-Dickinson Inc., Mountain View, Calif.) following staining cells with Phyco-Erytrin (PE)-conjugated anti-CD19 or -B220 antibodies (Becton Dickinson, San Jose, Calif. 95131).
After 18 hours of incubation, % viability of splenocytes was determined by FACSort after staining cells by the use of an Annexin V-FITC/PI Apoptosis Detection kit (BioVision Inc.). Viable cells were defined by Annexin V-negative, PI-negative cells.

Balb/c mice = assay: Oral toxicity study in normal Balb/c mice; format: in vivo, mouse
Protocol: Compounds or vehicle control were dosed 15 times over 3 weeks, giving compounds daily for 5 consecutive days (Monday-Friday), resting on weekends.
Both compounds were provided by NCI-DTP (RAID-program). Compounds were dissolved in 100% sesame oil just before oral administration. Vehicle-control consisted of corresponding concentration of ascorbic acid suspended in 100% sesame oil.
(§3) Spleens were removed and weighed.
Whole blood (250 μl) was collected in EDTA-coated glass tubes (purple top; MICROTAINER Brand Tube with EDTA, Catalogue #365973, Becton, Dickinson and Company, New Jersey 07417-1885) via either cardiac puncture or severing the brachial artery of anesthetized mice. After thorough mixing, specimens were analyzed using a VetScan HM2 (Abaxis Inc., Union City, Calif. 94587) hematology analyzer, measuring white blood cell count (WBC), red blood cell count (RBC), platelet (PLT) count, leukocyte differential (including % lymphocyte, % monocyte and % granulocyte), hematocrit (Ht), and hemoglobin (Hb).
(Eppendorf Centrifuge 5415C) for 2 minutes to separate serum from cells and fibrin clot. The resulting serum specimens were analyzed using an automated blood chemistry analyzer (“COBAS MIRA Classic”; Roche, Indianapolis, Ind. 46250-0414) to measure alanine aminotransferase (ALT) and aspartate aminotransferase AST), blood urea nitrogen (BUN), and […].
Stomach and intestines were examined also imaged by ultrasound for evidence of dilation, an indication of GI toxicity. Briefly, mice were anesthetized using a mixture of isofluorane (5%) and oxygen gas (95%), restrained on a heated table using Aquagel Lubrication Gel (Parker Laboratories, Inc., Fairfield, N.J. 07004), and abdominal hair was removed with a chemical depilation agent (Nair™ Hair Removal, Church & Dwight Co., Inc., Princeton, N.J. 08543). Aquasonic 100 Ultrasound Transmission Gel (Parker Laboratories, Inc., Fairfield, N.J. 07004) was applied to the abdomen prior to imaging using a high-frequency probe to assess gas and intestinal distention.
Immediately after ultrasound imaging, electrocardiogram (ECG) analysis of anesthetized mice was performed using a MP150 Biopack System.

Plasma stability = format: in vitro ADME, rat; settings: for Plasma Stability (T = 1 hr): rat plasma, 37.5° C.
Protocol: A 20 μL aliquot of a 10 mM solution in DMSO of the test compound was added to […] of heparinized rat plasma (Lampire, P1-150N) to obtain a 100 μM final solution. The mixture was incubated for 1 h at 37.5° C. Aliquots of 100 μL were taken (0, 30 min, 1 h) and diluted with 200 μL of MeOH containing internal standard.

BCL-2 transgenic mice = assay: Oral efficacy study in BCL-2 transgenic mice (splenomegaly); format: in vivo, mouse
Protocol: The transgene was propagated on the Balb/c background.
as §3, §2
Representative data are shown by FIGS. 11A and 11B.

380 cell line = assay: Apoptosis induction in NHL B-cell lines, Annexin V-FITC/PI; format: cell-based; settings: 48 hours, relative to DOHH2 and RS11846
Protocol: (§4) After 48 hours of incubation, % viability was determined by FACSort after staining cells by the use of an Annexin V-FITC/PI Apoptosis Detection kit (BioVision Inc.). Viable cells were defined by Annexin V-negative, PI-negative cells.

DOHH2 cell line = assay: as above; format: cell-based; settings: 48 hours; read-out: IC50, % viability DOHH2
Protocol: as §4

RS11846 cell line [5] = assay: as above; format: cell-based; settings: 48 hours; read-out: IC50, % viability RS11846
Protocol: as §4

RS11846 cell line [6] = assay: Apoptosis, Annexin V and propidium iodide assay; format: cell-based, human; settings: 1-2 days; read-out: RS11846 EC50 (Annexin V- and propidium iodide assay)
Protocol: The apoptotic activity of the compounds against RS11846 cells was assessed by staining with Annexin V- and propidium iodide (PI). Lymphoma cell line, RS11846, was cultured in RPMI 1640 medium (Mediatech Inc., Herndon, Va. 20171) containing 10% fetal bovine serum (Mediatech Inc., Herndon, Va. 20171) and Penicillin/Streptomycin (Mediatech Inc., Herndon, Va. 20171). […] The percentage of viable cells was determined by FITC-Annexin V- and propidium iodide (PI)-labeling, using an Apoptosis Detection kit (BioVision Inc.), and analyzing stained cells by flow cytometry (FACSort; Bectin-Dickinson, Inc.; Mountain View, Calif.). Cells that were annexin-V-negative and PI-negative were considered viable.

GST-BCL-2 = GST-BCL-2 (Homo sapiens (Human), UniProt P10415); assay: Fluorescence polarization assay (FITC-Bim BH3 peptide); format: binding; settings: for EC50: read-out: EC50 FPA BCL-2
Protocol: (§5) After 30 min incubation at room temperature, the polarization values in millipolarization units were measured at excitation/emission wavelengths of 480/535 nm with a multilabel plate reader (PerkinElmer). IC50 was determined by fitting the experimental data to a sigmoidal dose-response nonlinear regression model (SigmaPlot 10.0.1, Systat Software, Inc., San Jose, Calif., USA). Data reported are mean of three independent experiments ±standard error (SE). Performance of BCL-2 and Mcl-1 FPA are similar. […] Fluorescence polarization was measured after 10 min.

GST-BCL-XL ΔTM protein = GST-BCL-XL ΔTM protein (Homo sapiens (Human), UniProt Q07817); assay: Competitive fluorescence polarization assay (FITC-Bak BH3 peptide); format: binding
Protocol: For competitive binding assays, 100 nM GST-BCL-XL ΔTM protein was preincubated with the tested compound at varying concentrations in 47.5 μL PBS (pH=7.4) in 96-well black plates at room temperature for 10 min, then 2.5 μL of 100 nM FITC-labeled Bak BH3 peptide was added to produce a final volume of 50 μL. The wild-type and mutant Bak BH3 peptides were included in each assay plate as positive and negative controls, respectively.
IC50 was determined by fitting the experimental data to a sigmoidal dose-response nonlinear regression model (SigmaPlot 10.0.1, Systat Software, Inc., San Jose, Calif., USA). Data reported are mean of three independent experiments ±standard error (SE). […] Fluorescence polarization was measured after 10 min.

GST-Mcl-1 = GST-Mcl-1 (Homo sapiens (Human), UniProt Q07820); assay: Fluorescence polarization assay (FITC-Bim BH3 peptide); format: binding
Protocol: as §5, with “(SE).” for “(SE). Performance of BCL-2 and Mcl-1 FPA are similar.”

BCL-XL [7] = target: T1, BCL-XL (Homo sapiens (Human), UniProt Q07817); assay: 1D 1H-NMR binding assay; as to 1D 1H-NMR Binding Assay (BCL-XL): key: +++: Very Active; ++: Active; +: Mild; −: Weak
Protocol: By observing the aliphatic region of the spectra, binding could be readily detected due to chemical shift changes in active site methyl groups of Ile, Leu, Thr, Val or Ala (region between −0.8 and 0.3 ppm). All experiments were performed with a 600 MHz spectrometer Bruker Avance 600 equipped with four rf channels and z-axis pulse-field gradients.

BCL-XL [8] = target: T1, BCL-XL; assay: Isothermal titration calorimetry (ITC); format: binding
Protocol: Titrations were performed using a VP-ITC or ITC200 calorimeter from Microcal (Northampton, Mass.). BCL-XL was used at concentrations between 25 and 100 μM in 20 mM sodium phosphate buffer (pH 7.4) and 5-10% DMSO. Titrants were used at concentrations 10-15× of the protein in the same buffer. Titrations were carried out at 25° C. Data were analyzed using Microcal Origin software provided by the ITC manufacturer (Microcal, Northampton, Mass.).

B6BCL2 mouse = assay: Spleen weight in B6BCL2 transgenic mice after intraperitoneal injection; format: in vivo
Protocol: Transgenic mice expressing BCL-2 have been described as the B6 line. The BCL-2 transgene represents a minigene version of a t(14;18) translocation in which the human BCL-2 gene is fused with the immunoglobulin heavy-chain (IgH) locus and associated IgH enhancer. The transgene was propagated on the Balb/c background.
After 24 hours, B6BCL2 mice were sacrificed by intraperitoneal injection of lethal dose of Avertin. Spleen was removed and weighed. […] Spleen tissue was fixed in z-FIX for 3 days and rinsed in PBS, and saved for histological analysis of spleen (H&E staining and TUNEL assay).

T1 sequence (Q07817 whole entry): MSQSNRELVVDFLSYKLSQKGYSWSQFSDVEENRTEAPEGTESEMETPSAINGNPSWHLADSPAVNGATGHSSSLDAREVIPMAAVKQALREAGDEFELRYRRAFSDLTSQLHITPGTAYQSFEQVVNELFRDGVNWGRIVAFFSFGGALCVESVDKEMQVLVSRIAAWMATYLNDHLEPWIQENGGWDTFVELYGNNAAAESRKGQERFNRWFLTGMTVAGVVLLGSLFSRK
Sequence of GST-BCL-2 (P10415 whole entry): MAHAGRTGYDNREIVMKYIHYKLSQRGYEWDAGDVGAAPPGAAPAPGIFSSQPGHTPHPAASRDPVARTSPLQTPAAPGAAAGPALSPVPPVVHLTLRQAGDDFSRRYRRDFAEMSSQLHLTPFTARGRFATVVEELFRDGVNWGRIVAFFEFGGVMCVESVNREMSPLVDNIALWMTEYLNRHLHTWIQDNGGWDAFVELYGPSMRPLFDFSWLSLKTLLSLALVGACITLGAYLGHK
Sequence of GST-Mcl-1 (Q07820 whole entry): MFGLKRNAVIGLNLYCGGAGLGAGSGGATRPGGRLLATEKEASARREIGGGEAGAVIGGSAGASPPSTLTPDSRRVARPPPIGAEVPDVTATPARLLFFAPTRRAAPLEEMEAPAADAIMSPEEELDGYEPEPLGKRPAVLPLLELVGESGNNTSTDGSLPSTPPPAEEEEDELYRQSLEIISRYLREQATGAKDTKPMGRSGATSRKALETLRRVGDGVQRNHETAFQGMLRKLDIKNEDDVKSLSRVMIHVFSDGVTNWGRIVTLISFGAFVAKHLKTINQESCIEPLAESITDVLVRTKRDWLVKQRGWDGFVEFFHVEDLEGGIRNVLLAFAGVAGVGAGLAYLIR
Sequence of GST-BCL-XL ΔTM protein (Q07817 1-209): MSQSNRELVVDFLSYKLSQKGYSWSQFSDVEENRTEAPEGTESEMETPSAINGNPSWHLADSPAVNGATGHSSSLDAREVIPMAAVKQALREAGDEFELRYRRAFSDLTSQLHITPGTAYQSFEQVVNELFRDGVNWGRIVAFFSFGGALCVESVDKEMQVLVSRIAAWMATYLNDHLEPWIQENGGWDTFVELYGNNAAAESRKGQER
Sequence of Mcl-1 (Q07820 whole entry): as the sequence (Q07820 whole entry) above

SMILES: CN(C)CC[C@H](CSc1ccccc1)Nc1ccc(S(=O)(=O)NC(=O)c2ccc(N3CCN(Cc4ccccc4-c4ccc(Cl)cc4)CC3)cc2)cc1[N+](=O)[O-] [ABT-737]
- killing of Mcl-1 overexpressing cell lines such as H1299 (H1299): not effective in killing
- effectiveness against Mcl-1 (Mcl-1): not effective

SMILES: Cc1cc2c(C(C)C)c(O)c(O)cc2c(O)c1-c1c(C)cc2c(C(C)C)c(O)c(O)cc2c1O [Apogossypol, apogossypol]
- Microsomal Stability (T = 1 hr) [1]: 60%
- EC50 (PC3ML cells; 72 hours, ATP-LITE): 10300 nM
- EC50 (H460 cell line): 2800 nM
- EC50 (H460 cell line; listed as apogossypol): 3400 nM
- EC50 (RS11846 cell line [2]): 5000 nM
- Cell Permeability [3]: Low
- IC50 [4]: 1000 to 2000 nM
- mice found dead (Balb/c mice; […] oral, day 18 of treatment): One of 6
- general condition of mice (Balb/c mice; […] oral, three weeks): remained active and apparently healthy
- toxicity, preliminary maximum tolerated dose (MTD) studies (Balb/c mice; orally or by intraperitoneal injection): less toxic than gossypol
- Plasma Stability (T = 1 hr) (Plasma stability): 53%
- tolerability, low dose (BCL-2 transgenic mice; 0.06 mmol/kg oral, QDX5 for 3 weeks): well tolerated
- shrinkage of spleen, low dose (BCL-2 transgenic mice; 0.06 mmol/kg oral, QDX5 for 3 weeks, wet weight and B-cell count): induced shrinkage of spleen to a significant extent
- spleen size, high dose (BCL-2 transgenic mice; […] daily oral): reduced roughly by half
- tolerability, high dose (BCL-2 transgenic mice; […] oral, QDX5 for 3 weeks): well tolerated
- sensitivity of 380 cell line (380 cell line): slightly more resistant
- IC50 (DOHH2 cell line): ~3000 nM
- IC50 (RS11846 cell line [5]): ~3000 nM
- EC50 (RS11846 cell line [6]): 8600 nM
- EC50 (GST-BCL-2): 2800 nM

SMILES: Cc1cc2c(C(=O)Cc3ccccc3)c(O)c(O)cc2c(O)c1-c1c(C)cc2c(C(=O)Cc3ccccc3)c(O)c(O)cc2c1O [Compound I, 1,1′-(1,1′,6,6′,7,7′-hexahydroxy-3,3′-dimethyl-2,2′-binaphthyl-5,5′-diyl)bis(2-phenylethanone)]
- Microsomal Stability (T = 1 hr) [1]: 64%
- times more effective than apogossypol, FP displacement BCL-XL (GST-BCL-XL ΔTM protein): ~20 times
- EC50 (GST-BCL-XL ΔTM protein; Table 3, read-out: EC50 FPA BCL-XL): 190 nM
- fold more potent than apogossypol, PC3ML EC50 (PC3ML cells): 2-5 fold
- times more potent than apogossypol, H460 EC50 (H460 cell line): 4-5 times
- fold more potent than apogossypol, Mcl-1 FPA (GST-Mcl-1): ~5 fold
- EC50 (GST-Mcl-1; read-out: EC50 FPA Mcl-1): 520 nM
- cell membrane permeability compared to apogossypol [3]: improved
- Cell Permeability [3]: Medium
- chemical shift changes in active site methyl groups of BCL-XL (BCL-XL [7]; 1D 1H-NMR spectra): significant chemical shift changes
- 1D 1H-NMR Binding Assay (BCL-XL) (BCL-XL [7]; 4-point-rating scale, compounds 200 μM, BCL-XL 25 μM): +++
- times more potent than apogossypol, Kd ITC BCL-XL (BCL-XL [8]): 10 times
- Kd (BCL-XL [8]; 25° C., pH 7.4): 170 nM
- degraded after 1 hour incubation in rat plasma (Plasma stability; 1 hour): 15%
- Plasma Stability (T = 1 hr) (Plasma stability): 85%
- macroscopic toxicity (B6BCL2 mouse; mouse, in vivo): no macroscopic toxicity
- reduction in spleen weight, single mouse (B6BCL2 mouse; single BCL-2 transgenic mouse, 60 μmol/kg, intraperitoneal, 24 hours): 40%
- reduction of spleen weight, groups of six mice (B6BCL2 mouse; six mice, P<0.0001 vs control): ~40%
- EC50 (RS11846 cell line [6]): 4900 nM
- fold more potent than apogossypol, BCL-2 FPA (GST-BCL-2): approximately 8 fold
- EC50 (GST-BCL-2): 360 nM
